For experiment [1], the system named is HeLa cells overexpressing full-length JARID1B. As to the kind of experiment: H3K4me3 immunofluorescence in cells overexpressing 3xHA-JARID1B. Format: cell-based. Particulars: 10 μM or 30 μM, 24 hours. The method, then:
pcDNA3.1(−)-3×HA-JARID1B construct was generated by inserting 3×HA-JARID1B between BamHI and XbaI of pcDNA3.1(−) vector. MCF7 cells were plated on 12 mm circle coverslips in 24-well plates and transfected with pcDNA3.1(−)-3×HA-JARID1B in the presence of 0, 10 or 30 μM PBIT. After incubation for 24 hours, the cells were fixed, permeabilized, and stained with antibodies against HA and H3K4me3 for 2 hours. The coverslips were then incubated with anti-mouse Alexa-546 (Invitrogen, A-11003) and goat anti-rabbit Envision (Dako, K4002) for 1 hour. Cy5-Tyramide (Perkin Elmer, NEL775001KT) and 4,6-diamidino-2-phenylindole dihydrochloride (DAPI) (Biotium, 40011) were used to visualize 3×HA-tagged JARID1B and nuclei, respectively. The slides were sealed and analyzed under an Olympus fluorescence microscope.
To determine whether JARID1B could be inhibited by PBIT in cells, HeLa cells overexpressing full-length JARID1B were treated with 10 μM or 30 μM PBIT. As expected, in JARID1B transfected cells, the levels of H3K4me3 decreased dramatically compared with untransfected cells (FIG. 5).

For experiment [2], the system named is MCF7 cells. Description: Histone extraction and western blot of H3K4 methylation. Format: cell-based, human. Particulars: 10 μM, 72 hours, histone extracts. On the procedure:
MCF7 cells treated with PBIT (10 μM) or DMSO (0.1%) for 72 hours were harvested and lysed with PBS containing 0.5% Triton X-100. Nuclei were spun down by centrifugation at 6,500×g for 10 minutes, and the pellets were re-suspended in 0.2 N HCl. The histones were extracted overnight, and cellular debris was removed by centrifugation. The samples were loaded onto 16% SDS-PAGE gels and probed with antibodies against H3K4me3, H3K4me2, H3K4me1 and H3.
To determine whether PBIT affects H3K4 methylation globally in vivo, H3K4 methylation levels were analyzed in histone extracts prepared from MCF7 cells after exposure to PBIT.

Experiment [3] has as its system SKBR3-S cells (trastuzumab sensitive). Description: WST-1 cell proliferation assay. Format: cell-based. To be noted: 30 μM. The method, then: The colorimetric assay (WST-1 reagent) from Roche (11644807001) was performed in 96 well white clear bottom plates (Costar, 3610). 1,000 cells were seeded per well (in quadruplicate) overnight, and PBIT was added to the cells to the indicated concentration for 72 hrs. 0.01% DMSO was included as the control. The WST-1 reagent was added (5 μl per well) for 4 hrs, and OD 440 nm absorbance (which reflects the number of viable cells) was measured with the BioTek Synergy Mx Platereader.

The target of experiment [4] is T1, JMJD2E (Homo sapiens, UniProt B2RXH2).
T1 sequence (B2RXH2 1-337 limits assumed): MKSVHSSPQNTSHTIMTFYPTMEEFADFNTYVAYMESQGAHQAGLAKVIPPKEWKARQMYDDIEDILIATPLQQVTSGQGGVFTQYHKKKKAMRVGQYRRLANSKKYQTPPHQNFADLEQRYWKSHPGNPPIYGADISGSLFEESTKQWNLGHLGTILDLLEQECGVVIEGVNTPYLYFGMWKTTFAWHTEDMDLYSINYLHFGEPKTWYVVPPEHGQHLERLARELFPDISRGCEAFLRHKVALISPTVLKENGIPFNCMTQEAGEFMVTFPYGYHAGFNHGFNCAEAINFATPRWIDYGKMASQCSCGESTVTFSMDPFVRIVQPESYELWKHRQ
To be noted: King et al., 2010; cited from earlier work.

Entries after “also recorded” stand apart in the source; their conditions may differ.

The values below come from US20150272939A1, “Identification of Small Molecule Inhibitors of Jumonji AT-Rich Interactive Domain 1A (JARID1A) and 1B (JARID1B) Histone Demethylase” (Yale University, priority 2012, published 2015).

With `Cc1ccc(-n2sc3ccccc3c2=O)cc1` [PBIT, 2-4(4-methylphenyl)-1,2-benzisothiazol-3(2H)-one], the “JARID1B overexpression-induced decrease of H3K4me3” value in experiment [1] was “prevented; also recorded: decrease was blocked”. In addition, in experiment [2], the H3K4me1 levels result is given as “did not change significantly”, the H3K4me2 levels entry is “did not change significantly” and the H3K4me3 levels entry was “increased; also recorded: dramatic increase”. In experiment [3], the “cell proliferation (WST-1)” value is “small inhibitory effects”. For the same compound, the IC50 in experiment [4] was 28 µM.
